The values that follow come from patent US6046228A, “Anti-viral pharmaceutical compositions containing saturated 1,2-dithiaheterocyclic compounds and uses thereof” (priority 1999, dated 2000).

The subject of assay [1] is monocyte-macrophage (Mo/M.PHI.) cultures. The assay can be described thus: cytotoxicity in monocyte-macrophage cultures. The assay is classed as cell-based. The protocol:
(§1) Initial anti-HIV screening was performed with CEM-SS cells and HIV-1RFusing the XTT cytoprotection assay as previously described (Weislow et al., J. National Cancer Inst. 81: 577-586, (1989)). HIV-1 isolates included common laboratory stains (RF, IIIB and MN), as well as a panel of HIV-1 clinical isolates (Cushman et al., J. Med. Chem. 37: 3040-3050, (1994)). The pyridone-resistant HIV-1A17 isolate (Nunberg et al., J. Virol., 65: 4887-4892 (1991)) was obtained from Emilio Emini at Merck Sharpe and Dohme Laboratories. Phytohemagglutinin-stimulated human peripheral blood lymphocytes (PBLs) and fresh monocyte-macrophage (Mono/MF) cultures were prepared and utilized in antiviral assays as previously described (Rice et al., Proc. Nat'l. Academy Science, USA 90: 9721-9724, (1993)); (Cushman et al., J. Med. Chem. 37: 3040-3050, (1994)). EC50 values for these cultures indicate the drug concentration that provided a 50% reduction in viral p24 production. […] The compounds can be synthesized according to the teachings of Singh et al., Sulfur Letters 8: 107-114, (1988). The 4,5-cis-dihydroxy(1,1-dioxy-1,2,-dithiohexane) compound (NSC 624151) has been abbreviated as 624151 for convenience. MT-2, MT-4, U1, HeLa-CD4-LTR-β-gal and 174xCEM cells were obtained from the AIDS Research and Reference Program (National Institute of Allergy and Infectious Disease, National Institutes of Health, Bethesda, Md. USA), as were the HIV-2MS and the AZT-resistant HIV-1G910-6 isolates.

For another assay, the system named is HIV-1 BAKI(SI). The assay can be described thus: antiviral assay in PBL (p24), clinical isolate BAKI. Particulars: Human immunodeficiency virus 1, cell-free p24. The format is cell-based. The protocol: as §1, with “MT-2, MT-4, U1, HeLa-CD4-LTR-β-gal and 174xCEM cells were obtained from the AIDS Research and Reference Program (National Institute of Allergy and Infectious Disease, National Institutes of Health, Bethesda, Md. USA), as were the HIV-2MS and the AZT-resistant HIV-1G910-6 isolates.” left out

The next assay relates to HIV-1 Ba-L. Briefly: antiviral assay in Mo/M.PHI. (p24), Ba-L. The assay is classed as cell-based. To be noted: Human immunodeficiency virus 1, BAL, cell-free p24. As for the experimental part:
as §1, with “MT-2, MT-4, U1, HeLa-CD4-LTR-β-gal and 174xCEM cells were obtained from the AIDS Research and Reference Program (National Institute of Allergy and Infectious Disease, National Institutes of Health, Bethesda, Md. USA), as were the HIV-2MS and the AZT-resistant HIV-1G910-6 isolates.” left out

The test system of the next assay is HIV-1 N119(Nev^R). The assay can be described thus: XTT cytopathicity assay, nevirapine-resistant N119. The assay is classed as cell-based. Particulars: CEM-SS. As for the experimental part: as §1, with “MT-2, MT-4, U1, HeLa-CD4-LTR-β-gal and 174xCEM cells were obtained from the AIDS Research and Reference Program (National Institute of Allergy and Infectious Disease, National Institutes of Health, Bethesda, Md. USA), as were the HIV-2MS and the AZT-resistant HIV-1G910-6 isolates.” left out
In general terms: Tetrazolium assays rely on reduction of a dye to a coloured formazan, in cell work by metabolically active cells.

For the next assay, the system named is HIV-2ROD. Briefly: XTT cytopathicity assay, other retroviruses. The assay is classed as cell-based. Particulars: Human immunodeficiency virus 2, CEM-SS. The protocol:
as §1, with “MT-2, MT-4, U1, HeLa-CD4-LTR-β-gal and 174xCEM cells were obtained from the AIDS Research and Reference Program (National Institute of Allergy and Infectious Disease, National Institutes of Health, Bethesda, Md. USA), as were the HIV-2MS and the AZT-resistant HIV-1G910-6 isolates.” left out

Another assay relates to SIV. Briefly: XTT cytopathicity assay, other retroviruses. The format is cell-based. To be noted: Simian immunodeficiency virus.
Another assay has as its system HIV-1NL4-3. Briefly: XTT cytopathicity assay, NL4-3 without RT mutation. The format is cell-based. Particulars: Human immunodeficiency virus 1, NL43; MT-2, NL4-3, RT mutation None. The protocol: as §1, with “MT-2, MT-4, U1, HeLa-CD4-LTR-β-gal and 174xCEM cells were obtained from the AIDS Research and Reference Program (National Institute of Allergy and Infectious Disease, National Institutes of Health, Bethesda, Md. USA), as were the HIV-2MS and the AZT-resistant HIV-1G910-6 isolates.” left out

Assay [2] has as its system fusion of cells expressing CD4 and gp120. The assay can be described thus: fusion of target cells expressing CD4 and gp120. The assay is classed as cell-based. To be noted: in words.
The next assay concerns the target T1, HIV-1 integrase (Human immunodeficiency virus type 1 group M subtype B, UniProt P04585).
T1 construct: the purified HIV-1 protease and integrase enzymes
The assay can be described thus: HIV-1 integrase activity. The format is biochemical.

Assay [3] has as its system HIV-1 from latently infected U1 cells. The assay can be described thus: virus production from TNF-α stimulated latently infected U1 cells. Particulars: FIG. 3(A); for formation of infectious virus from infected cells: in words. The assay is classed as cell-based. The protocol: (§2) U1 cells latently infected with two copies of HIV-1 proviral DNA per cell (Clous et al., J. Immunol. 142: 431-438, (1989)) were treated with 5 ng/ml tumor necrosis factor-α(TNF-α) for 24 hours to stimulate production of HIV-1 virions, after which various concentrations of 624151 were added to the cultures and incubated for an additional 48 hours. Cultures were analyzed for cell viability by the XTT reduction assay and cells were counted and scored for viability by trypan blue exclusion. Cells pellets were lysed (0.5% Triton X-100, 300 mM NaCl, 50 mM Tris-HCl, pH 7.6, 10 μg/ml each of Leupeptin and aprotinin (Boehringer Mannheim), 1.8 mg/ml iodoacetamide (Sigma Chemical Co., St. Louis, Mo.) and 1.0 mg/ml the protease inhibitor Pefabloc SC (Boehringer Mannheim at 4° C. for 15 min. and then quantitated for viral p24 content by ELISA. Cell-free supernatant samples were collected and analyzed for virus content by p24 ELISA, and infectivity in cultures of 174xCEM cells. Briefly, serial 1/2 dilutions of the supernatant were placed with 5×10^3 174xCEM cells and cultured for 7 days, cell supernatants were analyzed for viral p24 content, and the number of infectious units/ml calculated. In addition, cell free supernatants were centrifuged at 17,000×g for 1 hour at 4° C. to collect virion pellets. Proteins from both the virion and cellular lysates were separated by 4-20% SDS-PAGE (50 μg protein per lane), blotted onto PVDF membranes, reacted with anti-p7 and anti-p24 antisera, and then probed with HRP-conjugated goat anti-rabbit IgG and subsequently viewed with Western Blot Chemiluminescence Reagent (Dupont NEN, Wilmington, Del.).
Once proviral DNA has integrated into the cellular DNA, compounds that act on replicative events during the pre-integrative phase of infection are without effect. However, the zinc fingers as a part of the Pr55^gag and Pr160^gag-pol participate in the post-integrative phase production of progeny infectious virions, and the zinc finger-reactive 624151 should affect those functions. To test this possibility, we evaluated the effects of 624151 on cell viability and the production of viral proteins and infectious virions from U1 cells that latently harbor two copies of HIV-1 proviral DNA. Stimulation of U1 cells with TNF-α results in the production of high levels of p24 and infectious virions.

The next assay concerns Pr55^gag. The assay can be described thus: immunoblot of viral proteins in U1 cells (Gag precursor processing). The assay is classed as cell-based, HIV-1. To be noted: FIG. 3(B), in words. As for the experimental part:
as §2, with “Proteins from both the virion and cellular lysates were separated by 4-20% SDS-PAGE (50 μg protein per lane), blotted onto PVDF membranes, reacted with anti-p7 and anti-p24 antisera, and then probed with HRP-conjugated goat anti-rabbit IgG and subsequently viewed with Western Blot Chemiluminescence Reagent (Dupont NEN, Wilmington, Del.).” left out
(Immunoblotting shows a protein as a band on a membrane.)

The target of the next assay is T2, HIV-1 protease (Human immunodeficiency virus type 1 group M subtype B, UniProt P04585).
T2 construct: the purified HIV-1 protease and integrase enzymes
The assay can be described thus: processing of purified recombinant Pr55^gag by purified HIV-1 protease. The format is biochemical. Particulars: data not shown, in words.

As for `O=S1(=O)C[C@H](O)[C@H](O)CS1` (relative stereo) [NSC 624151, cis-1,1-dioxo[1,2]dithiane-4,5-diol], the IC50 (in assay [1]; at HIV-1 integrase (read-out: Integrase ID50)) was more than 100 µM in each case. The EC50 (usually the concentration giving half of the maximal effect) with HIV-1 BAKI(SI) worked out at 19 µM; in the assay on HIV-1 Ba-L, 6.2 µM; in the assay with HIV-1 N119(Nev^R), 18 µM; in the assay on HIV-2ROD, 15.6 µM; in the assay on SIV, 22 µM; with HIV-1NL4-3 it was 16.6 µM. Besides, the inhibition of fusion entry in [2] is listed as “did not inhibit”. Moreover, the “inhibition of HIV-1 integrase” value on HIV-1 integrase (in words) is “not inhibited”. The results for the “formation of infectious virus from infected cells” value in assay [3] and in assay [3] (listed as 624151) were “inhibition of the formation of infectious virus from HIV-1 infected cells” and “prevention of the formation of infectious virus from previously infected cells”, respectively. In addition, the minimal effective concentration in [3] (Human immunodeficiency virus 1, 48 h, TNF-α stimulated U1 cells, read-out: concentration (as low as) at which infectious titer of released virions was effectively reduced) stood at 3 µM. In addition, the “levels of intracellular or extracellular viral p24” value in [3] (TNF-α stimulated U1 cells) was “did not dramatically reduce the levels of intracellular or extracellular viral p24”. Also, the “Pr55^gag processing to p41, p24, p9 and p7 proteins” value with Pr55^gag was “prevents processing of precursor proteins to mature viral proteins”; in the assay with Pr55^gag (listed as 624151), “decrease in Pr55^gag processing to the p41, p24, p9 and p7 proteins”. For the same compound, at HIV-1 protease, the “inhibition of purified HIV-1 protease processing of recombinant Pr55^gag” value is “not to inhibit purified HIV-1 protease”.
